Assays:
STZ-DM mice [1] = test: Weight of the collected thymus (Example 3); assay type: in vivo, C57BL/6 J mice; details: givinostat simultaneously with blood glucose control, both oral and intravenous; non-diabetic 37 mg, diabetic 13 mg
STZ-DM mice [2] = test: Drug treatment of STZ-DM mice (Example 3): weekly blood glucose levels; assay type: in vivo, C57BL/6 J mice
Method: An overview of the procedure is illustrated in FIG. 13. Streptozotocin (150 mg/kg) was tail vein-administered to C57BL/6 J mice (wild type, CLEA Japan, Inc., Osaka) (nonDM) to develop diabetes mellitus. For the STZ-DM mouse, the blood glucose level was normalized by insulin pellet administration, and the blank pellet was administered to a control group. In both the treatment group and the control group, 2.5 mg/kg of givinostat (Cayman chemical, USA) was administered to the tail vein or orally. The insulin pellet or the blank pellet was administered up to 3 days before the start of the givinostat treatment, and the administration of givinostat was started on the day on which it was confirmed that the blood glucose level of the treatment group fell within the normal range on day 0. Note that givinostat was administered once every three days until week 8. In addition, a non-diabetic group (nonDM) in which only a buffer was administered without administering STZ simultaneously with the treatment group, and a non-treated diabetic group (STZ-DM) in which neither blood glucose control nor treatment with givinostat was performed were also observed simultaneously.
(§1) Blood glucose levels were measured weekly for 12 weeks. In addition, an intraperitoneal glucose tolerance test (IPGTT) was performed on some mice 12 weeks after the start of treatment. After 16 hours of fasting, blood glucose level measurement and blood collection were performed at 0 minutes, 100 µl of a 1.5 g/kg glucose solution was intraperitoneally administered, and blood glucose level measurement and blood collection were performed at 30 minutes, 60 minutes, and 120 minutes, respectively. Serum was collected from the collected blood, and the serum insulin concentration was measured using an ultra-sensitive mouse insulin measurement kit (Morinaga Institute of Biological Science, Inc., Japan). FIG. 15 illustrates the transition of blood glucose, and FIG. 16 illustrates the transition of insulin concentration.

db/db mice [3] = test: Treatment of db/db mice with HDAC regulator and insulin glargine (Example 5); assay type: in vivo; details: givinostat 2.5 mg/kg orally daily + insulin glargine s.c. daily (tapered from 10 IU), 8-12 weeks
Method: (§2) Db/db mice were observed from week 6, and the time point at which the blood glucose level exceeded 300 mg/dl was defined as the onset of diabetes mellitus. […] 2 hours after administration of insulin glargine, 2.5 mg/kg of givinostat was orally administered daily to a mouse whose blood glucose level was measured and blood glucose lowering was confirmed. When the blood glucose level before administration of insulin glargine was lower than 200 mg/dl at longer than 8 weeks after the start of treatment, the administration of insulin glargine and givinostat on that day was discontinued. When the blood glucose level on the next day was also below 200 mg/dl, insulin glargine and givinostat were stopped, and then, the blood glucose level was measured weekly until week 4 to determine the diabetic state. […] When hypoglycemia appeared, blood glucose levels were measured 1 hour after intraperitoneal (300 µL) administration of 25% glucose solution, and this operation was repeated when hypoglycemia was still persistent. […] When hypoglycemia was confirmed, the subsequent insulin was adjusted to 1/2 of the previous dose as necessary.

STZ-DM mice [4] = test: Insulin and glucagon DAB staining of frozen pancreas sections (Example 3); assay type: in vivo, C57BL/6 J mice; details: givinostat administered simultaneously with blood glucose control (insulin pellet)
Method: 12 weeks after the start of treatment, some mice were subjected to perfusion fixation with a 4% PFA solution in 0.1 M PB and harvested pancreatic tissue was immersed overnight in a 15% sucrose solution in 0.1 M PB, and then, 8 um frozen sections were prepared with a cryostat. The frozen sections were washed 3 times with PBS (-) for 10 minutes, reacted in a 0.3% hydrogen peroxide solution (0.3% H2O2 in PBS (-)) for 30 minutes at room temperature to inactivate endogenous peroxidase in the sections, and then washed 3 times for 5 minutes with PBS (-). Thereafter, in order to prevent non-specific reactions, the sections were reacted with 5% normal goat serum in PBS (-) supplemented with 0.3% Triton X and blocked at room temperature for 1 hour. After blocking, the sections were reacted with a primary antibody (anti-insulin antibody: CST Inc. or anti-glucagon antibody: CST Inc.) at 4°C overnight. Thereafter, the sections was washed 3 times with PBS (-) for 5 minutes, reacted in ImmPRESS reagent (Vector laboratory) at room temperature for 30 minutes, and further washed. […] The prepared sections were observed under a microscope, about 5 to 8 pancreatic islets were randomly selected, and the percentage of insulin or glucagon positive cells relative to the size of the pancreatic islets was calculated using Image J software.

STZ-DM mice [5] = test: Effect of thymectomy on treatment of STZ-DM mice (Example 8); assay type: in vivo, C57BL/6 J mice
Method: Streptozotocin (150 mg/kg) was tail vein-administered to C57BL/6 J mice (wild type, CLEA Japan, Inc., Osaka) to develop diabetes mellitus. After one month of free feeding, an insulin pellet was subcutaneously administered to these STZ-DM mice to normalize their blood glucose levels. The mice were divided into two groups, for one group of mice, the thymus was removed from the suprasternal fossa (thymectomy group), and for the other group of mice, an incision was made in the suprasternal fossa and closed immediately (control group). Givinostat (Cayman chemical, USA) was orally administered at 2.5 mg/kg to both the thymectomy group and the control group. Givinostat was administered once every three days.
Blood glucose levels of mice in both groups were measured weekly (FIG. 24). After the end of 8 weeks of treatment, perfusion fixation was performed on both groups of mice to confirm the presence or absence of thymus (FIG. 25).

NOD mice = test: Treatment of diabetes mellitus in NOD mice with HDAC regulator and blood glucose control (Example 4); assay type: in vivo; details: givinostat 2.5 mg/kg orally daily + insulin glargine s.c. daily (tapered from 10 IU), 8-12 weeks
Method: as §2, with “The treatment was started for NOD” for “Db/db”, “one” for “were observed from”, “after confirmation of” for “6, and the time point at which the blood glucose level exceeded 300 mg/dl was defined as”, “hyperglycemia.” for “diabetes mellitus.”

db/db mice [6] = test: Treatment of db/db mice with HDAC regulator and dapagliflozin (Example 6); assay type: in vivo; details: givinostat 2.5 mg/kg + dapagliflozin 1.0 mg/kg orally daily for 8 weeks, then 4 weeks off treatment
Method: Db/db mice were observed from week 6, and the time point at which the blood glucose level exceeded 300 mg/dl was defined as the onset of diabetes mellitus. In db/db mice with leptin receptor deficiency, 1.0 mg/kg of dapagliflozin, an SGLT inhibitor, and 2.5 mg/kg of givinostat, an HDAC regulator, were orally administered daily for 8 weeks, after which the treatment was discontinued for 4 weeks and terminated.

STZ-DM mice [7] = test: TNF-α immunostaining (DAB staining) of bone marrow, thymus and pancreatic islets (Example 3); assay type: in vivo, C57BL/6 J mice
Method: In addition, mice in each experimental group were subjected to perfusion fixation, and then dissected to collect the femur, thymus, and pancreas. In the femur, bone tissue was demineralized using a neutral demineralizing solution (10% EDTA solution) to prepare a paraffin block. A paraffin section having a thickness of 3 µm was prepared from the paraffin block using a microtome, and was stained with DAB. As pretreatment for DAB staining, the paraffin section was deparaffinized with xylene and hydrophilized with ethanol, and the antigen was activated using HistoVT one (Nacalai Tesque). Thereafter, DAB staining was performed using TNF-α (abcam).

STZ-DM mice [8] = test: Intraperitoneal glucose tolerance test (IPGTT) 12 weeks after start of treatment (Example 3); assay type: in vivo, C57BL/6 J mice; details: insulin pellet + givinostat compared with blank pellet + givinostat, 1.5 g/kg glucose i.p.
Method: as §1

[9] = givinostat simultaneously with blood glucose control (insulin pellet)

## CCN(CC)Cc1ccc2cc(COC(=O)Nc3ccc(C(=O)NO)cc3)ccc2c1 [givinostat]
STZ-DM mice [1]
  thymus weight, relative to normal: about 2/3
STZ-DM mice [2]; givinostat 2.5 mg/kg for 8 weeks without insulin pellet (blank pellet)
  blood glucose level: the blood glucose level did not decrease even when givinostat was administered for 8 weeks
STZ-DM mice [2]; insulin pellet + givinostat 2.5 mg/kg (oral or intravenous, once every three days for 8 weeks), start of treatment
  blood glucose levels: immediately decreased
STZ-DM mice [2]; insulin pellet + givinostat (both orally and intravenously), after discontinuing givinostat after week 9, up to week 12
  blood glucose level: the reduction in blood glucose level continued even after discontinuing givinostat after week 9
db/db mice [3]
  diabetes mellitus outcome: cured
STZ-DM mice [4]; nonDM about 10%, STZ-DM 75%
  area of glucagon positive cells, of the entire pancreatic islets: about 40%
STZ-DM mice [4]; pancreatic islets, 12 weeks
  area of insulin positive cells, relative to nonDM: about 1/2
STZ-DM mice [5]; control group without thymectomy, insulin pellet + givinostat 2.5 mg/kg orally once every three days, 8 weeks
  blood glucose levels: no increase in blood glucose levels was observed
STZ-DM mice [5]; control group without thymectomy, insulin pellet + givinostat, week 8
  thymus atrophied by diabetes mellitus: recovered to a normal level
STZ-DM mice [5]; thymectomy group, insulin pellet + givinostat 2.5 mg/kg orally once every three days, 8 weeks
  blood glucose level at the end of treatment: about 400 mg/dL
STZ-DM mice [5]; thymectomy group, insulin pellet + givinostat, week 8
  thymus: the thymus did not recover even when the treatment was performed
NOD mice
  diabetes mellitus outcome: cured
db/db mice [6]
  diabetes mellitus outcome: cured
STZ-DM mice [7]; blank pellet + givinostat treatment (oral) and (intravenous)
  TNF-α positive cells in pancreatic islets: a large amount of TNF-α positive cells migrated to the center of the pancreatic islets
STZ-DM mice [7]; [9]
  TNF-α positive cells in bone marrow: TNF-α positive cells decreased to the same extent as the non-diabetic group
  TNF-α positive cells in thymus: TNF-α positive cells decreased to the same extent as the non-diabetic group
STZ-DM mice [7]; insulin pellet + givinostat treatment (oral) and (intravenous)
  TNF-α positive cells in pancreatic islets: almost no TNF-α positive cells were observed
STZ-DM mice [8]
  blood glucose levels after IPGTT: early normalization of blood glucose levels
  insulin in blood after IPGTT: high blood insulin elevation
